The nature of data set [1]: VIS/NIR absorption. It is filed as physicochemical. Conditions: H2O.
The conditions of data set [2]: in DMSO; according to Benson and Kues 1977; cited from earlier work.

Take `CC(=O)c1ccc2c(c1)C(C)(C)C(C=CC=CC=CC=C1N(CCCCS(=O)(=O)[O-])c3ccccc3C1(C)C)=[N+]2CCCCS(=O)(=O)[O-].[Na+]` [compound 1, 5-(1-oxoethyl)-1,1′-(4-sulfobutyl)-indotricarbocyanine-sodium salt]: the “Absorption λmax” value in data set [1] came to 748 nm. Moreover, in data set [1] (748 nm), the “Absorption coefficient ξ at λmax” value is listed as 14,800 1 mol^−1 cm^−1. `CC1(C)C(/C=C/C=C/C=C/C=C2\N(CCCCS(=O)(=O)O)c3ccc4ccccc4c3C2(C)C)=[N+](CCCCS(=O)(=O)[O-])c2ccc3ccccc3c21` [indocyanine green]: the “Fluorescence quantum yield Q (standard)” value in data set [2] was 13%.

The values above are taken from patent US6534041B1, “Acid-labile and enzymatically divisible dye compounds for diagnosis with near infrared light and for therapy” (Institute for Diagnostic Research GmbH of the Free …, priority 1997, dated 2003).
